Test results as given in PMC12388506, “Preclinical Evaluation of 2-Aminobenzothiazole Derivatives: In Silico, In Vitro, and Preliminary In Vivo Studies as Diabetic Treatments and Their Complications” (Molecules, 2025).

Tests used:
[1] = FRAP assay
Description: All synthesized compounds were evaluated at 30 μM, 50 μM, 70 μM, 90 μM, and 110 μM under two of the most widely used methods in research to directly measure the antioxidant and anti-radical intrinsic capacity, FRAP, and ABTS assay, which were validated by a dose–response curve of 5-ASA as a reference. In the same way, these tests were carried out in triplicate using an assay kit (from Pharmaceutical and Biotechnological Innovation-Services) according to the manufacturer’s instructions.

[2] = test system: male Wistar rat; assay: Acute oral toxicity, Up and Down procedure (OECD 425); type: in vivo; design: Heart weight / IWA (initial weight of animals) / FWA (final weight of animals) / Spleen weight / Liver weight / Intestine weight / Stomach weight / Kidney weight: unit not given here
Description: All synthesized compounds (8c, 8d, and 12d as a racemic mixture) were suspended in 2% Tween 80 in water and administered orally by an esophageal cannula following the “Up and Down” methodology. Nevertheless, compounds could not be solubilized in the desired volume to complete the highest dose (1750 mg/Kg), so the toxicity test was performed with a maximum dose of 1250 mg/Kg. Even so, the values obtained indicate that these compounds are classified within toxicity category 4 according to the guidelines established by the Organization for Economic Co-operation and Development (OECD).
The “Up and Down” procedure of OECD Guideline 425 was used to estimate the LD50 value of synthesized compounds. Briefly, a dose of 175 mg/Kg was administered to a male Wistar rat, which was monitored continuously for 48 h. As the animal survived, a second animal received a dose of 550 mg/Kg, and, as it survived, a third animal received an increasing dose of 1750 mg/Kg. Finally, two other rats were administered the same dose. All animals were kept under observation for 14 days, and 24 h later, they were taken to the humane endpoint for macroscopic examination of organs and tissues. Finally, the LD50 value of the compounds was estimated to determine their degree of toxicity and classified based on the GHS of Classification and Labeling of Chemicals.

[3] = test system: STZ-HFD-induced T2D Wistar rats; assay: 24-element blood chemistry in STZ-HFD-induced T2D model; type: in vivo, rat; design: GGT / TBA / AMY / TG / T-CHOL / GLU: unit not given here; settings: for ALP / ALT / AST / CK: in U/L (unit assumed); for ALB / GLO / TP: in g/dL (unit assumed); for BUN / CRE / Ca / Mg / P / TBIL / UREA: in mg/dL (unit assumed); for tCO2: in mmol/L (unit assumed); for TP: mean ± SEM, n = 4
Description: Treatments were administered daily as described above, adjusting the dose according to the weight of the individuals. Fasting glucose levels (6 h fast) were monitored every 7 days until the end of treatments at week 10 (Figure 14). Halfway through the last week of treatment, the OGTT was performed, administering a dose of 1.5 g/Kg of glucose orally and subsequently monitoring capillary blood glucose at 0, 15, 30, 60, 90, and 120 min [62]. In addition, a 24-element blood chemistry was measured in a Celercare V automated dry chemistry analyzer (Tianjin MNCHIP Technologies Co., Ltd., Tianjin, China) at the beginning and end of the model. For this purpose, the blood samples were obtained from the tail of the rat.
(§1) At the end of the study, animals fasted for 12 h and were taken to a humane endpoint, where blood samples were obtained. These were kept at room temperature for 30 min and then centrifuged at 4000 RPM for 15 min at 4 °C. Finally, the serum was used to perform 24-element blood chemistry and quantify Trolox-equivalent TAC [86], TNF-α [87], and IL-6 levels using commercial kits from Merck (Darmstadt, Germany), Sigma-Aldrich (St. Louis, MO, USA), Cat. No. MAK334-1KT, RAB0479-1KT, and RAB0311-1KT, respectively. In addition, insulin was quantified using the Rat Ins1/Insulin ELISA Kit, from Sigma-Aldrich, No. Cat. RAB0904-1KT [89] to determine the HOMA-IR index. All kits were performed according to the manufacturer’s instructions without modifications.

[4] = test system: STZ-HFD-induced T2D Wistar rats; assay: Ex vivo serum total antioxidant capacity (Trolox equivalent); type: in vivo, rat
Description: as §1

[5] = test system: IL-6; assay: Ex vivo serum IL-6 quantification; type: in vivo, rat
Description: as §1

[6] = test system: TNF-α; assay: Ex vivo serum TNF-α quantification; type: in vivo, rat
Description: as §1

[7] = biological target: T1, ALR2 enzyme (Homo sapiens, UniProt P15121); assay: ALR2 activity assay kit (ab273276), inhibition; type: biochemical; settings: Inhibitor concentration;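 also: inhibition calculated from the rate of NADPH cofactor consumption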
T1 construct: purchased ab273276

[8] = 1250 mg/Kg oral, necropsy, mean ± SEM
[9] = Table S11, After 5 weeks of treatment
[10] = serum, end of treatment, mean ± SEM, n = 4

COC(=O)[C@H](Cc1ccccc1)N/C(=N\c1nc2ccccc2s1)SC [8d, Methyl (E)-((benzo[d]thiazol-2-ylimino)(methylthio)methyl)-L-phenylalaninate]
Percentage reduction of ferric ion to ferrous ion (FRAP) ([1]; 30 µM): 12.7% | Percentage reduction of ferric ion to ferrous ion (FRAP) ([1]; 50 µM): 14.1% | Percentage reduction of ferric ion to ferrous ion (FRAP) ([1]; 70 µM): 15.1% | Percentage reduction of ferric ion to ferrous ion (FRAP) ([1]; 90 µM): 16.9% | Percentage reduction of ferric ion to ferrous ion (FRAP) ([1]; 110 µM): 18.4% | FWA (final weight of animals) ([2]; 1250 mg/Kg oral, after 14 days, mean ± SEM): 310.57 ± 11.6 | IWA (initial weight of animals) ([2]; 1250 mg/Kg oral, mean ± SEM): 201.0 ± 7.17 | Heart weight [2, 8]: 1.30 ± 0.03 | Intestine weight [2, 8]: 29.97 ± 0.72 | Kidney weight [2, 8]: 2.97 ± 0.03 | Liver weight [2, 8]: 17.57 ± 0.50 | Spleen weight [2, 8]: 0.67 ± 0.07 | Stomach weight [2, 8]: 1.70 ± 0.10 | toxicity category (OECD) ([2]; maximum dose 1250 mg/Kg oral): 4 | triglycerides (TG) ([3]; After 5 weeks of treatment): significantly reducing TG | A/G ([3]; Final): 1.28 ± 0.03 | AMY ([3]; Final): 436.50 ± 29.54 | AST/ALT ([3]; Final): 4.42 ± 0.79 | BUN/CRE ([3]; Final): 28.50 ± 6.00 | GGT ([3]; Final): 0.65 ± 0.18 | GLU ([3]; Final): 172.75 ± 50.56 | T-CHOL ([3]; Final): 90.00 ± 16.06 | TBA ([3]; Final): 54.33 ± 31.99 | TG ([3]; Final): 177.90 ± 82.61 | ALP ([3]; Final): 210.25 ± 109.57 | ALT ([3]; Final): 85.50 ± 27.46 | AST ([3]; Final): 319.75 ± 51.70 | CK ([3]; Final): > 3000 | ALB ([3]; Final): 4.00 ± 0.16 | GLO ([3]; Final): 3.13 ± 0.13 | BUN ([3]; Final): 17.78 ± 4.29 | CRE ([3]; Final): 0.62 ± 0.03 | Ca ([3]; Final): 9.82 ± 0.48 | Mg ([3]; Final): 2.34 ± 0.09 | P ([3]; Final): 7.89 ± 0.55 | TBIL ([3]; Final): 0.25 ± 0.05 | UREA ([3]; Final): 38.10 ± 9.11 | tCO2 ([3]; Final): 18.00 ± 0.82 | TP ([3]; Final): 7.13 ± 0.28 | A/G ([3]; Initial): 1.3 ± 0.11 | AMY ([3]; Initial): 361.25 ± 6.54 | AST/ALT ([3]; Initial): 2.16 ± 0.40 | BUN/CRE ([3]; Initial): 21.50 ± 2.60 | GGT ([3]; Initial): 1.33 ± 0.38 | GLU ([3]; Initial): 188.50 ± 31.74 | T-CHOL ([3]; Initial): 105.5 ± 19.94 | TBA ([3]; Initial): 79.85 ± 13.64 | TG ([3]; Initial): 291.35 ± 160.5 | ALP ([3]; Initial): 287.75 ± 31.54 | ALT ([3]; Initial): 68.75 ± 11.67 | AST ([3]; Initial): 135.75 ± 8.14 | CK ([3]; Initial): 641.75 ± 63.37 | ALB ([3]; Initial): 3.78 ± 0.08 | GLO ([3]; Initial): 2.95 ± 0.22 | BUN ([3]; Initial): 11.94 ± 1.46 | CRE ([3]; Initial): 0.56 ± 0.00 | Ca ([3]; Initial): 9.45 ± 0.16 | Mg ([3]; Initial): 2.18 ± 0.07 | P ([3]; Initial): 6.83 ± 0.64 | TBIL ([3]; Initial): 0.31 ± 0.05 | UREA ([3]; Initial): 25.65 ± 3.10 | tCO2 ([3]; Initial): 15.25 ± 0.63 | TP ([3]; Initial): 6.73 ± 0.20 | hepatotoxicity ([3]; subchronic treatment): without inducing hepatotoxicity | effect on total antioxidant capacity (TAC) [4]: did not improve TAC | TAC Equivalent to Trolox [4, 9]: 79.26 ± 17.28 µM | TAC Equivalent to Trolox [4, 10]: 79.26 ± 17.28 µM | effect on IL-6 and TNF-α levels ([5]; IL-6 and TNF-α together): highest levels of both cytokines | IL-6 [5, 9]: 887.53 ± 243.91 pg/mL | IL-6 [5, 10]: 887.53 ± 243.91 pg/mL | TNF-α [6, 9]: 5417.72 ± 2104.18 pg/mL | TNF-α [6, 10]: 5417.72 ± 2104.2 pg/mL | relative ALR2 inhibition [7]: 98.000%
